# Measured values from ChEMBL document CHEMBL1201862, “PubChem BioAssay data set” (2004).
# Activity calls are given as the source filed them.
# Key:
# [1] = target: T1, Leucine aminopeptidase (Plasmodium falciparum 3D7, UniProt Q8IL11); experiment: P. falciparum M17LAP inhibitors, primary screen, biochemical, fluorogenic H-Leu-NHMec substrate, 1536-well (AID 1619); format: functional
# T1 sequence (Q8IL11 whole entry): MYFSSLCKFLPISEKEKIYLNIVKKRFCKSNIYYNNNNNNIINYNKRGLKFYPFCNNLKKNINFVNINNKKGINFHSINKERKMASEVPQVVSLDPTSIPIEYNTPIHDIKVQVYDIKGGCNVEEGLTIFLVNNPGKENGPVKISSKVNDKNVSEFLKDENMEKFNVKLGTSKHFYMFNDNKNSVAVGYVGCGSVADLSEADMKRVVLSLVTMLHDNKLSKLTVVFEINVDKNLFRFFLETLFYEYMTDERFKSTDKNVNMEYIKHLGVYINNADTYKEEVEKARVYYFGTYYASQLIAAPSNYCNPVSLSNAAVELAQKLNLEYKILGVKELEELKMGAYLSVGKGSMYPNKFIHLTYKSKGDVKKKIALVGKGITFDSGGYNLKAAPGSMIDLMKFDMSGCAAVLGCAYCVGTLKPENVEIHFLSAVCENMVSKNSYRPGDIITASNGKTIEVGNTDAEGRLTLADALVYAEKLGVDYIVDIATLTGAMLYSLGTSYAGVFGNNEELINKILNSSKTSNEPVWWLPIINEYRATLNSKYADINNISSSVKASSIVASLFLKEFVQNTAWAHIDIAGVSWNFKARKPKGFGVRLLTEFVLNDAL
# [2] = target: Cytochrome P450 2C9 (Homo sapiens, UniProt P11712)
# Sequence of Cytochrome P450 2C9 (P11712 whole entry): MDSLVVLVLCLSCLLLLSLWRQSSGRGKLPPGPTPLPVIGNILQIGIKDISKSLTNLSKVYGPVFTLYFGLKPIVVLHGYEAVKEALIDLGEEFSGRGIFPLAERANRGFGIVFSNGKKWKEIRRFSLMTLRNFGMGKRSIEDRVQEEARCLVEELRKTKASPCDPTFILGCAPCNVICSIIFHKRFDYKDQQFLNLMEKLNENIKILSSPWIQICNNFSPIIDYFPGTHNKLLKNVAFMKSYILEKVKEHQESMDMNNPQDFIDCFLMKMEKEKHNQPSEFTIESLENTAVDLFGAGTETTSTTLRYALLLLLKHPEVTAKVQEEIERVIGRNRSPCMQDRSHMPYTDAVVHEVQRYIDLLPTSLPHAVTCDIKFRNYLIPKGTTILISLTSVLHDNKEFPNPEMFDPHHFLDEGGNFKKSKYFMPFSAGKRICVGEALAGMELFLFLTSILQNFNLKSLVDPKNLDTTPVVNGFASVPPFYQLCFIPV
# [3] = target: Cytochrome P450 2D6 (Homo sapiens, UniProt P10635);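 also: CYP2D6 member of a cytochrome P450 panel assay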
# Sequence of Cytochrome P450 2D6 (P10635 whole entry): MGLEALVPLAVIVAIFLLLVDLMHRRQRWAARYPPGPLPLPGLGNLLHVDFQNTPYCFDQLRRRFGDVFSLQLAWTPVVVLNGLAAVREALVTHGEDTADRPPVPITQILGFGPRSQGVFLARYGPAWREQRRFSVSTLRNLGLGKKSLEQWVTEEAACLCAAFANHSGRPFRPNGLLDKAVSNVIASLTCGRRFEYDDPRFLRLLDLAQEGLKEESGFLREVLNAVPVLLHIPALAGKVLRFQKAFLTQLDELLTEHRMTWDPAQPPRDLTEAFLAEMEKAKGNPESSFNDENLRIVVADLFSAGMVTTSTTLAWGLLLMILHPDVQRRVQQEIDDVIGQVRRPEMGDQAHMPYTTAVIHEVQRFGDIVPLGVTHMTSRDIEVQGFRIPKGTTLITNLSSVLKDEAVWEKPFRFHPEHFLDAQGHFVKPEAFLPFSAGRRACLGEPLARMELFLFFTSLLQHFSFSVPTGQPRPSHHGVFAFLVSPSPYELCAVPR
# [4] = target: Cytochrome P450 2C19 (Homo sapiens, UniProt P33261); experiment: Cytochrome panel assay with activity outcomes. Panel member name: p450-cyp2c19 Compounds with AC50 equal or less than 10 uM are considered active; format: functional; conditions: read-out: AC50
# Sequence of Cytochrome P450 2C19 (P33261 whole entry): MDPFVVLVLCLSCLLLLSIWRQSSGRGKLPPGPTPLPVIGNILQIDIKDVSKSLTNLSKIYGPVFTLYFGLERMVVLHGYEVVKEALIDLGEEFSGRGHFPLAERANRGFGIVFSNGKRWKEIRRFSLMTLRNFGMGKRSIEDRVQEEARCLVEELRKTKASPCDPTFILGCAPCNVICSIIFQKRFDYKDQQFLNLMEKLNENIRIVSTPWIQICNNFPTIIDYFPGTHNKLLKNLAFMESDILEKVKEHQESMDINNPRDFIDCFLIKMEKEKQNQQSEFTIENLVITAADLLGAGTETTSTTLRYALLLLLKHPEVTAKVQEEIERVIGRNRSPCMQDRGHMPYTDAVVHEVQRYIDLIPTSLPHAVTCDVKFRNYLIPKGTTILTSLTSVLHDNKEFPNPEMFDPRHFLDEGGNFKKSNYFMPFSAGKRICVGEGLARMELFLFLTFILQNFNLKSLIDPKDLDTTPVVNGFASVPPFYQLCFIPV
# [5] = system: HeLa; experiment: ATP-based viability loss in HeLa cells – cell-based, CellTiter-Glo luminescence, cherry-pick samples, cytotoxicity control for MITF activator project, dose response (AID 540259); format: functional; conditions: Homo sapiens
# [6] = target: T2, Lysine-specific demethylase 4C (Homo sapiens, UniProt Q9H3R0); experiment: inhibition of JMJD2C H3K9me3 demethylation – biochemical, DELFIA europium, cherry-picked samples, dose response (AID 488835); format: functional
# T2 sequence (Q9H3R0 whole entry): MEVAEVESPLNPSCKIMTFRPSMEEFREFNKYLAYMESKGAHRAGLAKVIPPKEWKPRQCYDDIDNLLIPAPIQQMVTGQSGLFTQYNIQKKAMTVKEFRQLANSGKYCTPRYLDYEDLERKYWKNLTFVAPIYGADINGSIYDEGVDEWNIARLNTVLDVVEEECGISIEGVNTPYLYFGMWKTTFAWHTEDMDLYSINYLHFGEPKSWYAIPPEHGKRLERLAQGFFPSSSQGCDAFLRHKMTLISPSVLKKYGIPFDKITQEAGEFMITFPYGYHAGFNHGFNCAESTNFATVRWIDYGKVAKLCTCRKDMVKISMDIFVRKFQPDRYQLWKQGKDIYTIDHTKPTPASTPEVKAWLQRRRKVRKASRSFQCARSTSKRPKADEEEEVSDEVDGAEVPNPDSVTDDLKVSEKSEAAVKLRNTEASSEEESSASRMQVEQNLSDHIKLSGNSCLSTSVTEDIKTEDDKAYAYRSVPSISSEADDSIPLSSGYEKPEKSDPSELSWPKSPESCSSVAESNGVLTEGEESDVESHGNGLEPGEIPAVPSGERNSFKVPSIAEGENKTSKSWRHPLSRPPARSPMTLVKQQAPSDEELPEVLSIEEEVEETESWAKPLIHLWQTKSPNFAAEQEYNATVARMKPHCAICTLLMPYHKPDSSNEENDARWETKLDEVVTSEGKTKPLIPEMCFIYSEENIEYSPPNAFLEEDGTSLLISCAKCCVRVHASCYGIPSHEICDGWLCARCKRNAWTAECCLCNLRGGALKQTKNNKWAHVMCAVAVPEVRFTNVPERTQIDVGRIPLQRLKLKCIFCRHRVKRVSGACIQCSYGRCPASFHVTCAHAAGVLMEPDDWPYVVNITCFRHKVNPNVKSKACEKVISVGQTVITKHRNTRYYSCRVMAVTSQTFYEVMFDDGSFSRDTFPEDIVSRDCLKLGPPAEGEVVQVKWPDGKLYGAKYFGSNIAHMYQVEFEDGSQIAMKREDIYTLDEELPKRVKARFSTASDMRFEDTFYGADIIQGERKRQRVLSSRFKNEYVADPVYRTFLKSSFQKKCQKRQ
# [7] = target: Lysine-specific demethylase 4A (Homo sapiens, UniProt O75164); experiment: inhibition of JMJD2A H3K9me3 demethylation – biochemical, DELFIA europium, cherry-picked samples, selectivity assay for GASC-1 inhibitor project, dose response (AID 488840)
# Sequence of Lysine-specific demethylase 4A (O75164 whole entry, the tested form may be a part): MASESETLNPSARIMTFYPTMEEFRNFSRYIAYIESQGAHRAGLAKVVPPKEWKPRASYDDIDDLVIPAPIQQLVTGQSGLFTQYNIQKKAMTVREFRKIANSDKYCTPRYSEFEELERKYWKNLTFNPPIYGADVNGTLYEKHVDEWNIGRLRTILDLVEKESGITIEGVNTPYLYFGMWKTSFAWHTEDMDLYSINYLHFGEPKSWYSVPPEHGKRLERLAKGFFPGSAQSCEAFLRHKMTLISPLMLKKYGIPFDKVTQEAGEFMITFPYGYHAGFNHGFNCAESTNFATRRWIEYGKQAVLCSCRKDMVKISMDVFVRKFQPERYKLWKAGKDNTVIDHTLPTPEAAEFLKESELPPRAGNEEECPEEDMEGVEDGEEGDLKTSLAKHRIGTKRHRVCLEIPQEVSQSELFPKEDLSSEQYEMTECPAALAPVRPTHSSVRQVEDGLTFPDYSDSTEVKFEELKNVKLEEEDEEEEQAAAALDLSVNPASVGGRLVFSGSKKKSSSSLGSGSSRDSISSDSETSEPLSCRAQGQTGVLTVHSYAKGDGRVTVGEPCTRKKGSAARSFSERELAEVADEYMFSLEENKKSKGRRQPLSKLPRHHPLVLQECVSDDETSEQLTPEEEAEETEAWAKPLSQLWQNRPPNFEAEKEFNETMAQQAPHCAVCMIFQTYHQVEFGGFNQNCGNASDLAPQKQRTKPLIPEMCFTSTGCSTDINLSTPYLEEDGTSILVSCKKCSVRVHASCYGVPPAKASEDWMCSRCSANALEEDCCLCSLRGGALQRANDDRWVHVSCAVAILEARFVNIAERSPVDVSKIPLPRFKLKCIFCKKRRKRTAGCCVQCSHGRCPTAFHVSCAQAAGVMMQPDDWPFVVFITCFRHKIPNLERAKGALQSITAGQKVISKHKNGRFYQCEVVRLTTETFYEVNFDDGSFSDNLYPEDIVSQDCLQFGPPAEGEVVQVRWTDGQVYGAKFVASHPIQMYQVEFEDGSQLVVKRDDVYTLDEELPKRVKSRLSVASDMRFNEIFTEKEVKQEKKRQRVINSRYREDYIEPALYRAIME
# [8] = target: T3, RNA-binding protein pos-1 (Caenorhabditis elegans, UniProt G5EF15); experiment: disruptors of C. elegans POS-1 RNA interaction – biochemical, fluorescence polarization, dose response (AID 1964);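 also: purified POS-1 fused to maltose binding protein made in E. coli; potency of compounds blocking POS-1 binding to fluorescent RNA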
# T3 sequence (G5EF15 whole entry): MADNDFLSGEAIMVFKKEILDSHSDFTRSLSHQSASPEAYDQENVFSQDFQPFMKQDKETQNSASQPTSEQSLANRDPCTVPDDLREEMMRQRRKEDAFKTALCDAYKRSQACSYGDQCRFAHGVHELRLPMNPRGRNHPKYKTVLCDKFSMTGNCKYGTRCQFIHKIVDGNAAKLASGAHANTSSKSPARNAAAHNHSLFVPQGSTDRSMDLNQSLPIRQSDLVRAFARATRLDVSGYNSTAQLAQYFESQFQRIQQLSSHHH
# [9] = target: T4, Zinc finger protein mex-5 (Caenorhabditis elegans, UniProt Q9XUB2); experiment: potency of MEX-5 RNA-binding blockers – biochemical, C. elegans, fluorescence polarization, dose response (AID 1960)
# T4 sequence (Q9XUB2 whole entry): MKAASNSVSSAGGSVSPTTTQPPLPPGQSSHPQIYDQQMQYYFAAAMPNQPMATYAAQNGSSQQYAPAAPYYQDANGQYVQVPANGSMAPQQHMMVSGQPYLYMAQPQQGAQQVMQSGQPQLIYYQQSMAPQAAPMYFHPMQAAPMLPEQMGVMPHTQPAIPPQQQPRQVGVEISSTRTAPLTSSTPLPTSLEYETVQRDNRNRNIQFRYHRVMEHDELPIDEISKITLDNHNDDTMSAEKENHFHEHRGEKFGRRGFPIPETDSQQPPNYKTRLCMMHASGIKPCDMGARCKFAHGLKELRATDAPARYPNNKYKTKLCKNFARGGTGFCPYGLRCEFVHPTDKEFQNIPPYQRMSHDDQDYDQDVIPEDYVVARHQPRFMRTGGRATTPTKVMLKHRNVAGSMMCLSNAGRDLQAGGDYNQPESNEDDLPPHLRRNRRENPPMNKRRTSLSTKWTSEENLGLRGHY
# [10] = system: A-375; experiment: proliferation inhibition in MITF-low A375 cells – cell-based, cherry-pick samples, set 2, counter-screen for MITF modulator project, dose response (AID 540335); format: functional; conditions: Homo sapiens
# [11] = Luminescence Cell-Based Dose Retest to Confirm Inhibitors of Cancer Stem Cells. [Related pubchem assays (depositor defined):AID2717, AID2721]; format: functional; conditions: Homo sapiens
# [12] = target: T5, Microphthalmia-associated transcription factor (Homo sapiens, UniProt O75030); experiment: reducers of TRPM1 reporter luminescence, concentration series – cell-based, SK-MEL-5, cherry-picked, set 3, MITF inhibitor project, dose response (AID 493073); format: functional;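 also: SK-MEL-5 melanoma cells with luciferase driven by the MITF target TRPM1 promoter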
# T5 sequence (O75030 whole entry): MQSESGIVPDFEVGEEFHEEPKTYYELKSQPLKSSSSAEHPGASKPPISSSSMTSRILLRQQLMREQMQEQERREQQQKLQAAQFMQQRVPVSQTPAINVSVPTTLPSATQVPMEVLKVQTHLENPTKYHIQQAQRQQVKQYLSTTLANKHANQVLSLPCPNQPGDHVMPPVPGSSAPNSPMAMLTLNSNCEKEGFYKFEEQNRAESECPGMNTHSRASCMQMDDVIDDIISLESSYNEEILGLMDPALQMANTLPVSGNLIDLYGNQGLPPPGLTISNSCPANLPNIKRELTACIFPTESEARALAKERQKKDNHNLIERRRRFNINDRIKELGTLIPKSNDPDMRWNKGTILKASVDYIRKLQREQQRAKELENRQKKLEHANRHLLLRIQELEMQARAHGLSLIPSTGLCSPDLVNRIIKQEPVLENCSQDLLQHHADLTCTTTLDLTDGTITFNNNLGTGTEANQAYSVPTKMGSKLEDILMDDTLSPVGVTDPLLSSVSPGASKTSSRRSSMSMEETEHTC
# [13] = system: INS1; experiment: INS-1E survival protection against cytokine death – cell-based, luminescence, retest, dose response (AID 449756); format: functional; conditions: Rattus norvegicus;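 also: cell death triggered by IL-1 beta plus TNF-alpha plus IFN-gamma mixture; protective hits raise ATP signal compared with cytokine alone wells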
# [14] = target: T6, Heat shock factor protein 1 (Mus musculus, UniProt P38532); experiment: enhancement of HSF1-driven luciferase signal – cell-based, NIH3T3, luminescence, dose retest, confirmation (AID 435004); format: functional;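 also: stress induced by proteasome inhibitor MG132 added 30 min after compound; luciferase reporter driven by HSF1 response element in NIH3T3 cells; actives raise luminescence as potentiators of the MG132 stress response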
# T6 sequence (P38532 whole entry): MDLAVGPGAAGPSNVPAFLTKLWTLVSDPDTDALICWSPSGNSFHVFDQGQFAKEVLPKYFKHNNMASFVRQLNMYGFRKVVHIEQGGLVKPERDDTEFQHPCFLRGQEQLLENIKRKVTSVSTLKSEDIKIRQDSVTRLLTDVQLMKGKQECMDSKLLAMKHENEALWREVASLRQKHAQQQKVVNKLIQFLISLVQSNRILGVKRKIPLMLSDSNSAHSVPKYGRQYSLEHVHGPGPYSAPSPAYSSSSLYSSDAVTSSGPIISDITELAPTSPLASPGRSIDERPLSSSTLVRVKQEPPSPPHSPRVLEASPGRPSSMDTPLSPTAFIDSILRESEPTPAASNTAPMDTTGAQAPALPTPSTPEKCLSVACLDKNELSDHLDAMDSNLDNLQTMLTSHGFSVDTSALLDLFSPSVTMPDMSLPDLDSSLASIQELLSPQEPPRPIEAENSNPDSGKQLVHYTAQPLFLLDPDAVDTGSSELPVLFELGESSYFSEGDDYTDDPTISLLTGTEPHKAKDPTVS
# [15] = NIH3T3 cell viability loss – ATP luminescence, mouse fibroblasts, counter-screen, dose response (AID 2010); format: functional, cell-based;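 also: cells exposed to compound for about 90 hours before reading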
# [16] = reduced cellular PGC1a acetyl-lysine signal – cell-based, cherry-picked samples, dose response (AID 720514); format: functional;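 also: potency may reflect raised or lowered acetylation signal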
# [17] = Trypanosoma cruzi growth suppression in host cells – NIH3T3 host cells, beta-gal luminescence, confirmation (AID 2044); format: functional, cell-based;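 also: intracellular parasites grown in NIH/3T3 mouse fibroblasts as host cells; luminescent beta-galactosidase reporter signal from transgenic T. cruzi replicating inside host cells; inhibitors lower the luminescence signal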
# [18] = system: HEK293; experiment: cells; conditions: Homo sapiens
# [19] = system: HEK293; experiment: cells; conditions: Homo sapiens; remark: listed apart in the source
# [20] = A Cell Based Secondary Assay To Explore Cytotoxicity of Compounds that Sensitize Mycobacterium Tuberculosis to Beta-Lactam Antibiotics.; format: functional
# [21] = HEK-293T viability loss, compound-treated – cell-based, uHTS hits, cytotoxicity control for B/T-cell NF-kB inhibitor project, dose response (AID 489019); format: functional;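 also: IC50 reflects cytotoxicity as loss of cell viability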
# [22] = system: Jurkat; experiment: blockers of NF-kB activation in T cells – Jurkat, luciferase reporter, luminescence, B- and T-cell, dose response (AID 489004); format: functional, cell-based; conditions: Homo sapiens;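 also: NF-kB luciferase reporter Jurkat cells stimulated with PMA plus ionomycin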
# [23] = system: H4; experiment: Luminescence Cell-Based Dose Response HTS to Identify Activators of 5'UTR Stem-Loop Driven Prion Protein mRNA Translation in H4 Neuroglioblastoma Cells. [Related pubchem assays: 1829 (Project Summary), 1814 (Primary HTS)]; format: functional; conditions: Homo sapiens
# [24] = Luminescence Cell-Based Dose Response HTS to Identify Activators of Luciferase Translation or Activity in H4 […] Cells. [Related pubchem assays: 1829 (Project Summary), 1814 (Primary HTS)]; format: functional
compound,measurement,setting,value
Cc1ccc(NC(=O)c2cc(NC(=O)CCC(=O)O)ccc2N2CCCCC2)cc1,IC50,[1],11.8 µM (active)
same,AC50,[2],14.1 µM (inconclusive)
same,AC50,[3],inconclusive
same,AC50,[4],35.5 µM (inconclusive)
O=C(CNC(=O)c1cccs1)c1ccc(Br)cc1,AC50,[5],59.4 µM (active)
Cn1c(=O)c2[nH]c(N=NNc3ccccc3F)nc2n(C)c1=O,AC50,[6],8.83 µM (active)
same,AC50,[7],17.3 µM (active)
same,EC50,[8],62 µM (active)
same,EC50,[9],21.7 µM (active)
Cc1ccc(C)c(NC(=O)/C(C#N)=C/c2cn(CC(=O)NCc3ccco3)c3ccccc23)c1,AC50,[10],33.9 µM (active)
same,AC50,[11],57.8 µM (active)
same,AC50,[12],6.56 µM (active)
same,AC50,[13],3.67 µM (active)
N#Cc1cc(Oc2cccc3cccnc23)c(-n2nnc3ccccc32)cc1C#N,EC50,[14],> 260 µM (inactive)
same,EC50,[15],22.6 µM (active)
same,AC50,[16],2.77 µM (active)
same,EC50,[17],2.25 µM (active)
same,EC50,[18],> 59.6 µM (inactive)
same,EC50,[19],> 59.6 µM (inactive)
same,CC50,[20],> 40 µM (active)
C=CCn1c(C)cc(C(=O)CN2NS(=O)(=O)c3ccccc3C2=O)c1C,EC50,[18],> 2.21 µM (active)
same,EC50,[19],> 59.6 µM (inactive)
CCCCCCCCn1ccc(=N)cc1,IC50,[21],> 80 µM (inactive)
same,IC50,[22],> 80 µM (inactive)
same,AC50,[13],0.585 µM (active)
Cc1ccc(Sc2cnc3ccccc3n2)cc1,AC50,[5],44.3 µM (active)
same,EC50,[23],10.1 µM (active)
same,EC50,[24],3.64 µM (active)
O=C1OC(=O)[C@@H]2[C@@H]1[C@@H]1CC[C@H]2O1,AC50,[3],inconclusive
